# Results published in patent US20080014186A1, “Hla-A24 or Hla-A2 Binding Peptides of Parathyroid Hormone-Related Protein” (GREEN PEPTIDE CO., LTD., priority 2004, published 2008).
# Legend:
# [1] = test system: IgG in plasma of HLA-A2^+ healthy donors and prostate cancer patients; assay: Peptide-specific IgG in plasma by ELISA (HLA-A2-binding PTHrP peptides); design: species or system human; settings: for IgG reactive to the peptide in plasma (difference of OD): 1:100-diluted plasma
# Procedure: Peptide-specific IgG levels in the plasma were measured by ELISA, as previously reported. In brief, peptide (20 μg/well)-immobilized plates were blocked with Block Ace (Yukijirushi, Tokyo, Japan) and washed with 0.05% Tween20-PBS, after which 100 μl/well of plasma sample diluted with 0.05% Tween20-Block Ace was added to the plate. After 2 hours incubation at 37° C., the plates were washed and further incubated for 2 hours with a 1:1000-diluted rabbit anti-human IgG (γ-chain-specific) (DAKO, Glostrup, Denmark). The plates were washed, and then 100 μl of 1:100-diluted goat anti-rabbit IgG-conjugated horseradish peroxidase (EnVision, DAKO) was added to each well, and the plates were then incubated at room temperature for 40 min. After the plates were washed once, 100 μl/well of tetramethyl benzidine substrate solution (KPL, Guildford, UK) was added, and the reaction was stopped by the addition of 1 M phosphoric acid. The values are shown as optical density (OD) units/ml, and responses to the HIV peptide were subtracted. IgG reactive to a corresponding PTHrP peptide was judged to be positive when the difference of the OD in 1:100-diluted plasma exceeded 0.05. The results that IgG reactive to either the PTHrP102-111 or the […] peptide was detected in 8 of 10 healthy donors and in 7 of 10 prostate cancers are shown in Table 2 hereinafter.
# In a similar way to Example 3, it was examined whether IgGs reactive to peptides of PTHrP 42-51 and PTHrP 59-67 could be detected in the plasma of 10 healthy donors and 10 cancer patients. The cut-off value at 1:100-diluted plasma was ODO.054.
# [2] = test system: PBMCs of HLA-A2^+ healthy donors and prostate cancer patients; assay: Assay for peptide-specific CTLs in PBMCs (IFN-γ ELISA, peptide-pulsed T2 cells); format: cell-based, human; settings: for INF-γ production: T2 cells
# [3] = HLA-A2^+ prostate cancer patients
sequence,measurement,setting,value
"FLHHLIAEIH [PTHrP 59-68, previously reported PTHrP peptide generating CTLs from HLA-A*0201 healthy donors [17], reference compound]",IgG reactive to the peptide in plasma (difference of OD),[1]; HLA-A2^+ healthy donor #1,0.0855 OD
same,IgG reactive to the peptide in plasma (difference of OD),[1]; HLA-A2^+ healthy donor #2,— (IgG reactive to a corresponding peptide was judged to be positive when a difference of OD in a 1:100-diluted plasma was more than 0.054.)
same,IgG reactive to the peptide in plasma (difference of OD),[1]; HLA-A2^+ healthy donor #3,— (IgG reactive to a corresponding peptide was judged to be positive when a difference of OD in a 1:100-diluted plasma was more than 0.054.)
same,IgG reactive to the peptide in plasma (difference of OD),[1]; HLA-A2^+ healthy donor #4,— (IgG reactive to a corresponding peptide was judged to be positive when a difference of OD in a 1:100-diluted plasma was more than 0.054.)
same,IgG reactive to the peptide in plasma (difference of OD),[1]; HLA-A2^+ healthy donor #5,— (IgG reactive to a corresponding peptide was judged to be positive when a difference of OD in a 1:100-diluted plasma was more than 0.054.)
same,IgG reactive to the peptide in plasma (difference of OD),[1]; HLA-A2^+ healthy donor #6,— (IgG reactive to a corresponding peptide was judged to be positive when a difference of OD in a 1:100-diluted plasma was more than 0.054.)
same,IgG reactive to the peptide in plasma (difference of OD),[1]; HLA-A2^+ healthy donor #7,0.119 OD
same,IgG reactive to the peptide in plasma (difference of OD),[1]; HLA-A2^+ healthy donor #8,0.167 OD
same,IgG reactive to the peptide in plasma (difference of OD),[1]; HLA-A2^+ healthy donor #9,0.065 OD
same,IgG reactive to the peptide in plasma (difference of OD),[1]; HLA-A2^+ healthy donor #10,0.112 OD
same,Total (IgG-positive donors / donors tested),[1]; HLA-A2^+ healthy donors,5/10
same,IgG reactive to the peptide in plasma (difference of OD),[1]; HLA-A2^+ prostate cancer patient #1,— (IgG reactive to a corresponding peptide was judged to be positive when a difference of OD in a 1:100-diluted plasma was more than 0.054.)
same,IgG reactive to the peptide in plasma (difference of OD),[1]; HLA-A2^+ prostate cancer patient #2,— (IgG reactive to a corresponding peptide was judged to be positive when a difference of OD in a 1:100-diluted plasma was more than 0.054.)
same,IgG reactive to the peptide in plasma (difference of OD),[1]; HLA-A2^+ prostate cancer patient #3,0.0795 OD
same,IgG reactive to the peptide in plasma (difference of OD),[1]; HLA-A2^+ prostate cancer patient #4,— (IgG reactive to a corresponding peptide was judged to be positive when a difference of OD in a 1:100-diluted plasma was more than 0.054.)
same,IgG reactive to the peptide in plasma (difference of OD),[1]; HLA-A2^+ prostate cancer patient #5,— (IgG reactive to a corresponding peptide was judged to be positive when a difference of OD in a 1:100-diluted plasma was more than 0.054.)
same,IgG reactive to the peptide in plasma (difference of OD),[1]; HLA-A2^+ prostate cancer patient #6,— (IgG reactive to a corresponding peptide was judged to be positive when a difference of OD in a 1:100-diluted plasma was more than 0.054.)
same,IgG reactive to the peptide in plasma (difference of OD),[1]; HLA-A2^+ prostate cancer patient #7,— (IgG reactive to a corresponding peptide was judged to be positive when a difference of OD in a 1:100-diluted plasma was more than 0.054.)
same,IgG reactive to the peptide in plasma (difference of OD),[1]; HLA-A2^+ prostate cancer patient #8,— (IgG reactive to a corresponding peptide was judged to be positive when a difference of OD in a 1:100-diluted plasma was more than 0.054.)
same,IgG reactive to the peptide in plasma (difference of OD),[1]; HLA-A2^+ prostate cancer patient #9,— (IgG reactive to a corresponding peptide was judged to be positive when a difference of OD in a 1:100-diluted plasma was more than 0.054.)
same,IgG reactive to the peptide in plasma (difference of OD),[1]; HLA-A2^+ prostate cancer patient #10,0.1305 OD
same,Total (IgG-positive patients / patients tested),[1]; [3],2/10
same,INF-γ production,[2]; HLA-A2^+ healthy donor #1 (A0201),23 pg/mL
same,INF-γ production,[2]; HLA-A2^+ healthy donor #2 (A0201),51 pg/mL
same,INF-γ production,[2]; HLA-A2^+ healthy donor #3 (A0201),0 pg/mL
same,INF-γ production,[2]; HLA-A2^+ healthy donor #4 (A0201),0 pg/mL
same,INF-γ production,[2]; HLA-A2^+ healthy donor #5 (A0206),0 pg/mL
same,INF-γ production,[2]; HLA-A2^+ healthy donor #6 (A0206),46 pg/mL
same,INF-γ production,[2]; HLA-A2^+ healthy donor #7 (A0206),0 pg/mL
same,INF-γ production,[2]; HLA-A2^+ healthy donor #8 (A0206),0 pg/mL
same,INF-γ production,[2]; HLA-A2^+ healthy donor #9 (A0206),0 pg/mL
same,INF-γ production,[2]; HLA-A2^+ healthy donor #10 (A0207),0 pg/mL
same,"induced peptide-specific CTLs, number of donors",[2]; HLA-A2^+ healthy donors,no peptide-specific CTLs were induced
same,Total (donors with significant peptide-specific IFN-γ production / donors tested),"[2]; HLA-A2^+ healthy donors, p < 0.05",0/10
same,INF-γ production,[2]; HLA-A2^+ prostate cancer patient #1 (A0206),31 pg/mL
same,INF-γ production,[2]; HLA-A2^+ prostate cancer patient #2 (A0210),0 pg/mL
same,INF-γ production,[2]; HLA-A2^+ prostate cancer patient #3 (A0210),48 pg/mL
same,INF-γ production,[2]; HLA-A2^+ prostate cancer patient #4 (A0206),138 pg/mL
same,INF-γ production,[2]; HLA-A2^+ prostate cancer patient #5 (A0206),154 pg/mL
same,INF-γ production,[2]; HLA-A2^+ prostate cancer patient #6 (A0207),0 pg/mL
same,INF-γ production,[2]; HLA-A2^+ prostate cancer patient #7 (A0206),222 pg/mL
same,INF-γ production,[2]; HLA-A2^+ prostate cancer patient #8 (A0206),146 pg/mL
same,INF-γ production,[2]; HLA-A2^+ prostate cancer patient #9 (A0201),43 pg/mL
same,INF-γ production,[2]; HLA-A2^+ prostate cancer patient #10 (A0201),112 pg/mL
same,"induced peptide-specific CTLs (peptide-specific IFN-γ production), number of patients",[2]; [3],5 of 10
same,Total (patients with significant peptide-specific IFN-γ production / patients tested),"[2]; HLA-A2^+ prostate cancer patients, p < 0.05",5/10
